Source: patent publication US20210060158A1, “AGONIST OF ARYL HYDROCARBON RECEPTOR FOR USE IN CANCER COMBINATION THERAPY” (INSTITUT CURIE, priority 2017, published 2021)

Key:
[1] = system: dermal mo-DC and MHC class II+ macrophages; assay: Skin mo-DC and macrophage proportions in mice fed I3C-supplemented diet; type: in vivo, mouse; settings: supplemented diet versus control diet
Text: FIG. 4: AhR is involved in mo-DC differentiation in vivo in the mouse. (A-C) Ear skin from individual AhR^-/- mice or WT littermates (A-B), or C57BL/6 mice fed with an experimental diet supplemented or not with indole-3-carbinol […]) (C), was digested to prepare single-cell suspensions. After gating on live CD45^+CD3^-NK1.1^-CD19^-Ly6G^-CD24^- CD11b^+ cells, cells were separated into 5 subsets based on the expression of Ly6C, CD64, MHC II and CCR2. (A) One representative AhR^-/- and WT mouse is shown. (B-C) Proportions of monocytes, early mo-DC, mo-DC, MHC II^+ macrophages and resident MHC II^- macrophages among Ly6C^+ or CD64^+ cells. Each symbol represents an individual mouse (B n=9 in 2 independent experiments, C n=12 in 2 independent experiments).*p<0.05, **p<0.01. (D-E) Cells from the peritoneal lavage were analyzed by flow cytometry. After gating on live CD115^+CD11b^+ cells, cells were separated into MHCII^+CD226^+ cells and ICAM2^+MHCII^- cells. (D) Cell-sorted cells were analyzed after cytospin and Giemsa/May-Grünwald staining. Bar=10 μm. Representative of 2 independent experiments. (E) C57BL/6 mice fed with an experimental diet supplemented or not with […], and treated or not with a cocktail of antibiotics. […] To address the physiological relevance of our findings, we analyzed the role of AhR in mo-DC and mo-Mac differentiation in vivo in the mouse. […]

peritoneal mo-DC = assay: Peritoneal MHCII+CD226+ mo-DC in antibiotics-treated mice fed I3C-supplemented or control diet; type: in vivo, mouse; settings: I3C-supplemented versus control diet, peritoneal lavage
Text: FIG. 4: AhR is involved in mo-DC differentiation in vivo in the mouse. (A-C) Ear skin from individual AhR^-/- mice or WT littermates (A-B), or C57BL/6 mice fed with an experimental diet supplemented or not with indole-3-carbinol […]) (C), was digested to prepare single-cell suspensions. After gating on live CD45^+CD3^-NK1.1^-CD19^-Ly6G^-CD24^- CD11b^+ cells, cells were separated into 5 subsets based on the expression of Ly6C, CD64, MHC II and CCR2. (A) One representative AhR^-/- and WT mouse is shown. (B-C) Proportions of monocytes, early mo-DC, mo-DC, MHC II^+ macrophages and resident MHC II^- macrophages among Ly6C^+ or CD64^+ cells. Each symbol represents an individual mouse (B n=9 in 2 independent experiments, C n=12 in 2 independent experiments).*p<0.05, **p<0.01. (D-E) Cells from the peritoneal lavage were analyzed by flow cytometry. After gating on live CD115^+CD11b^+ cells, cells were separated into MHCII^+CD226^+ cells and ICAM2^+MHCII^- cells. (D) Cell-sorted cells were analyzed after cytospin and Giemsa/May-Grünwald staining. Bar=10 μm. Representative of 2 independent experiments. […] To address whether the decrease of peritoneal mo-DC upon antibiotics treatment was AhR-dependent, we fed antibiotics-treated mice with a […]-supplemented or control diet, and analyzed cells from the peritoneal lavage (FIG. 3E).

Treg cells = assay: Induction of functional Treg cells upon administration
Text: The impact of a given AHR agonist on Treg cells may be estimated by exposing purified T cells (typically CD4^+ T cells) in vitro with the said agonist. Treg cells are characterized by expression of the transcription factor Foxp3.

CD14+ monocytes = assay: Human CD14+ monocyte differentiation into mo-DC versus mo-Mac (culture with M-CSF, IL-4 and TNF-α, flow cytometry at day 5); type: cell-based; settings: monocytes cultured with M-CSF, IL-4 and TNF-α for 5 days, various doses of compound
Protocol: (§1) FIG. 2: AHR is a molecular switch for mo-DC versus mo-Mac differentiation. (A-B) CD14^+ monocytes were infected at day 0 with lentivirus containing sh RNA against AHR, or control sh RNA. After 5 days of culture, cells were analyzed by Immuno Blot (A) or by flow cytometry (B). (A) Silencing quantified based on Immuno Blot stainings. (B) Proportions of DC and macrophages in the culture at day 5. Each symbol represents an individual donor (n=6 in 3 independent experiments). *p<0.05. (C) Monocytes were cultured with MCSF, IL-4 and TNF-α for 5 days, in the presence of various concentrations of FICZ (AHR agonist) or SR1 (AHR inhibitor). Proportions of DC and macrophages at day 5. […] (D-E) CD14^+ monocytes were analyzed directly after isolation, or were cultured for 3h in medium alone or with various combinations of MCSF, IL-4, TNF-α, FICZ or SRI. (D) Relative expression of IRF4 and MAFB measured by RT-qPCR. […] (E) Expression of IRF4 and MAFB at the single cell level was measured by fluorescent in situ hybridization coupled to flow cytometry. […]
FIG. 3: AHR acts on mo-DC differentiation through BLIMP-1. […] PRDM1 expression measured by RT-qPCR. […] Total cells were lyzed at different days and analyzed by Immuno Blot. […] After 5 days of culture, cells were analyzed by Immuno Blot (C) or by flow cytometry (D-E). (C) Silencing quantified based on Immuno Blot stainings. […]

[2] = system: IRF4 expression in CD14+ monocytes; assay: IRF4 and MAFB expression in monocytes after 3 h of culture, RT-qPCR; type: cell-based, human; settings: 3 h culture, with IL-4 (FICZ: with IL-4 and TNF-α)
Protocol: as §1
To decipher how AHR shapes monocyte fate, we assessed IRF4 and MAFB expression in monocytes after 3 h of culture with various combinations of M-CSF, IL-4, TNF-α, SR1 and FICZ (FIG. 2D). We also analyzed the expression of CYP1A1, a known direct target of AHR (Stockinger et al., 2014), as a control for AHR activation. […]

Compound | MHC class II+ macrophages in the skin [1] | mo-DC in the skin [1] | peritoneal mo-DC differentiation in antibiotics-treated mice (peritoneal mo-DC) | induction of functional Treg cells (Treg cells) | mo-DC development / proportions at day 5 (CD14+ monocytes) | mo-Mac development / proportions at day 5 (CD14+ monocytes) | IL-4-induced IRF4 expression [2]
OCc1c[nH]c2ccccc12 [I3C, indole-3-carbinol] | decreased | significantly increased | restored mo-DC differentiation in antibiotics-treated mice almost up to normal proportions | does not induce functional Treg cells |  |  | 
CC(C)n1cnc2c(NCCc3ccc(O)cc3)nc(-c3csc4ccccc34)nc21 [SR1, stemregenin-1] |  |  |  |  | decreasing | increased | inhibited
